Data: US11827624B2, “Covalent immune recruiter compounds for immune cell recognition and associated uses” (McMaster University, priority 2020, dated 2023)

System: PSMA+HEK cells
Assay: Luminescence ADCC reporter (CD16α activation) assay with mmAb
Assay type: cell-based, human
Conditions: antibody 10^−7-10^−9 M
Description: Covalent vs. non-covalent antibody recruitment were compared in functional immune assays. Activation of NK cell CD16α immune receptors was assessed via luminescence based ADCC assays. ADCC was quantified using the ADCC Reportor Bioassay kit (Promega G7010). All ADCC induced luminescence was measured on a SpectraMax i3 plate reader (Molecular Devices). The human IgG isotype control used was purchased from Jackson ImmunoResearch (009-000-003). The human IgG1 monoclonal anti-DNP antibody (mAb) was purchased from Acrobiosystems (DNP-M2). Human IgG from serum was purchased from Innovative Research ([…]1000MG). Anti-DNP depleted serum was made from human IgG from serum (Innovative Research). For PSMA competition controls, 2-PMPA was purchased from Sigma (SML1612). Hek-293T (PSMA+/−) cell lines were generously given by Dr. Cyril Barinka (Institute of Biotechnology CAS, Czech Republic). Ultra low IgG FBS was purchased from Fischer Scientific (A3381901). RPMI-1640 was purchased as a powder from Fischer Scientific (31800089) and resuspended. DMEM was purchased as a powder from Fischer Scientific (12800082) and resuspended. Pen/Strep was purchased from Fischer Scientific (15140-122). FBS was purchased from Fischer Scientific (12484-028). Zeocin was purchased from Fischer Scientific (R25001). HEK-PSMA cells were cultured in DMEM media with 2 mM L-glut, 1% Pen/Strep, 10% FBS, 50 ug/mL Zeocin. HEK cells were cultured in DMEM media with 2 mM L-glut, 1% Pen/Strep, 10% FBS.
Preparation of antibody-CIR/ARM stocks were mixed overnight prior to addition to the ADCC plate. In the case of mmAb and mAb, incubation was carried out at 600 nM antibody and 1.2 μM CIR or ARM. In the case of IgG from serum, incubation was completed at 230 μM antibody and 8.7 μM CIR or ARM. In all cases, DMSO was kept close to 1%. After the overnight incubation, a dilution series was completed on the antibody-CIR/ARM stocks in RPMI (1% DMSO). […] 75 μL of Bio-Glo Luciferase Assay Reagent was added to each well, and luminescence was quantified using the SpectraMax i3 plate reader. […]

Compound | CD16α based target immune recognition
O=C(O)CC[C@H](NC(=O)N[C@@H](CCCCNC(=O)NCCOCCOCCOCCOCCOCCOCCOCCOC(=O)n1cnc(CCn2cc(CNc3ccc([N+](=O)[O-])cc3[N+](=O)[O-])nn2)c1)C(=O)O)C(=O)O [CIR 5] | robust target immune recognition
O=C(O)CC[C@H](NC(=O)N[C@@H](CCCCNC(=O)NCCOCCOCCOCCOCCOCCOCCOCCOC(=O)NCCOCCn1cc(CNc2ccc([N+](=O)[O-])cc2[N+](=O)[O-])nn1)C(=O)O)C(=O)O [ARM 12, reference compound] | largely unable to mediate immune recognition of target HEK cells
